Measurements published in ChEMBL document CHEMBL2417501, “Synthesis of 4-aminoquinoline-pyrimidine hybrids as potent antimalarials and their mode of action studies” (Eur J Med Chem, 2013).

Legend:
Plasmodium falciparum [1] = test: Antimalarial activity against chloroquine-resistant Plasmodium falciparum Dd2; assay type: functional, organism-based
[2] = Inhibition of beta-hematin formation at 1 mg/ml; assay type: functional
DNA = test: Binding affinity to calf thymus DNA assessed as change in melting temperature at 30 uM by UV-visible spectrophotometry; assay type: nucleic-acid assay; details: Bos taurus
Human alphaherpesvirus 2 = test: Antiviral activity against Herpes simplex virus-2 G infected in human HEL cells assessed as reduction of virus-induced cytopathogenicity; assay type: functional, organism-based; details: Human alphaherpesvirus 2, strain G
[3] = test system: Vesicular stomatitis virus; test: Antiviral activity against Vesicular stomatitis virus infected in human HEL cells assessed as reduction of virus-induced cytopathogenicity; assay type: functional, organism-based
Human alphaherpesvirus 3 [4] = test: Antiviral activity against […] Varicella-zoster virus 07-1 infected in human HEL cells assessed as reduction of plaque formation; assay type: functional, organism-based; details: Human alphaherpesvirus 3, 07-1, HEL
Human alphaherpesvirus 3 [5] = test: Antiviral activity against TK-positive Varicella-zoster virus OKA infected in human HEL cells assessed as reduction of plaque formation; assay type: functional, cell-based; details: Human alphaherpesvirus 3, strain Oka vaccine
[6] = Cytotoxicity against human HEL cells; assay type: cell-based
Cytomegalovirus [7] = test: Antiviral activity against Cytomegalovirus AD-169 infected in human HEL cells assessed as reduction of plaque formation; assay type: functional, organism-based; details: Human betaherpesvirus 5, AD-169, HEL
[8] = Cytotoxicity against human HeLa cells; assay type: cell-based
[9] = test system: Mammalian orthoreovirus 1; test: Antiviral activity against Reovirus-1 infected in african green monkey Vero cells assessed as reduction of virus-induced cytopathogenicity; assay type: functional, organism-based; details: Mammalian orthoreovirus 1, Vero
[10] = Cytotoxicity against african green monkey Vero cells; assay type: cell-based; details: chlorocebus sabaeus
[11] = Cytotoxicity against cat CRFK cells; assay type: cell-based, Felis catus
[12] = Selectivity index, ratio of CC50 for MDCK cells to IC50 for chloroquine-resistant Plasmodium falciparum Dd2; assay type: functional
Influenza B virus = test: Antiviral activity against influenza B virus infected in dog MDCK cells assessed as reduction of virus-induced cytopathogenicity by MTS assay; assay type: functional, organism-based
Human alphaherpesvirus 1 [13] = test: Antiviral activity against Herpes simplex virus-1 KOS infected in human HEL cells assessed as reduction of virus-induced cytopathogenicity; assay type: functional, organism-based; details: Human alphaherpesvirus 1, KOS
[14] = (§1) Cytotoxicity against MDCK cells assessed as cell viability after 4 days by MTS assay; assay type: cell-based, Canis lupus familiaris; details: dog, MDCK cells
Coxsackievirus [15] = test: Antiviral activity against Coxsackievirus B4 infected in human HeLa cells assessed as reduction of virus-induced cytopathogenicity; assay type: functional, organism-based
[16] = test system: Respiratory syncytial virus; test: Antiviral activity against Respiratory syncytial virus infected in human HeLa cells assessed as reduction of virus-induced cytopathogenicity; assay type: functional, organism-based
Influenza A virus [17] = test: Antiviral activity against influenza A virus H1N1 subtype infected in dog MDCK cells assessed as reduction of virus-induced cytopathogenicity by MTS assay; assay type: functional, organism-based
Human respirovirus 3 = test: Antiviral activity against Parainfluenza-3 virus infected in african green monkey Vero cells assessed as reduction of virus-induced cytopathogenicity; assay type: functional, organism-based; details: Human respirovirus 3, Vero
Felid alphaherpesvirus 1 = test: Antiviral activity against feline herpesvirus infected in cat CRFK cells assessed as reduction of virus-induced cytopathogenicity by MTS assay; assay type: functional, organism-based; details: Felid alphaherpesvirus 1, CRFK
Sindbis virus = test: Antiviral activity against Sindbis virus infected in african green monkey Vero cells assessed as reduction of virus-induced cytopathogenicity; assay type: functional, organism-based
[18] = test system: Vesicular stomatitis virus; test: Antiviral activity against Vesicular stomatitis virus infected in human HeLa cells assessed as reduction of virus-induced cytopathogenicity; assay type: functional, organism-based
Punta Toro virus = test: Antiviral activity against […] infected in african green monkey Vero cells assessed as reduction of virus-induced cytopathogenicity; assay type: functional, organism-based
Feline coronavirus = test: Antiviral activity against Feline coronavirus infected in cat CRFK cells assessed as reduction of virus-induced cytopathogenicity by MTS assay; assay type: functional, organism-based; details: Alphacoronavirus 1, CRFK
Plasmodium falciparum [19] = test: Antimalarial activity against chloroquine-sensitive Plasmodium falciparum D10 by two-fold dilution technique; assay type: functional, organism-based
Cytomegalovirus [20] = test: Antiviral activity against Cytomegalovirus Davis infected in human HEL cells assessed as reduction of plaque formation; assay type: functional, organism-based; details: Human betaherpesvirus 5, Davis
Human alphaherpesvirus 1 [21] = test: Antiviral activity against TK-negative Herpes simplex virus 1 KOS infected in human HEL cells assessed as reduction of virus-induced cytopathogenicity; assay type: functional, organism-based; details: Human alphaherpesvirus 1, KOS
Influenza A virus [22] = test: Antiviral activity against influenza A virus […] subtype infected in dog MDCK cells assessed as reduction of virus-induced cytopathogenicity by MTS assay; assay type: functional, organism-based; details: read-out: EC50
Coxsackievirus [23] = test: Antiviral activity against Coxsackievirus B4 infected in african green monkey Vero cells assessed as reduction of virus-induced cytopathogenicity; assay type: functional, organism-based
MDCK = test: as §1; assay type: cell-based, Canis lupus familiaris; details: dog, mdck, 96 h

| Structure (SMILES) | IC50 (Plasmodium falciparum [1]) | inhibition [2] | EC50 (Human alphaherpesvirus 2) | EC50 [3] | EC50 (Human alphaherpesvirus 3 [4]) | EC50 (Human alphaherpesvirus 3 [5]) | MCC [6] | EC50 (Cytomegalovirus [7]) | MCC [8] | EC50 [9] | MCC [10] | EC50 (Influenza B virus) | EC50 (Human alphaherpesvirus 1 [13]) | MCC at 96 h [14] | EC50 (Coxsackievirus [15]) | EC50 [16] | EC50 (Influenza A virus [17]) | EC50 (Human respirovirus 3) | EC50 (Felid alphaherpesvirus 1) | EC50 (Cytomegalovirus [20]) | other results |
| --- | --- | --- | --- | --- | --- | --- | --- | --- | --- | --- | --- | --- | --- | --- | --- | --- | --- | --- | --- | --- | --- |
| C[C@H]1[C@H](OC(=O)CCC(=O)O)O[C@@H]2O[C@@]3(C)CC[C@H]4[C@H](C)CC[C@@H]1[C@@]24OO3 [ARTESUNATE] | 0.0312 µM |  |  |  |  |  |  |  |  |  |  |  |  |  |  |  |  |  |  |  |  |
| CCN(CC)CCCC(C)Nc1ccnc2cc(Cl)ccc12 (centres undefined) |  | 98% |  |  |  |  |  |  |  |  |  |  |  |  |  |  |  |  |  |  | ΔTm (DNA): 9 °C |
| O=c1[nH]c(=O)n([C@H]2C[C@H](O)[C@@H](CO)O2)cc1/C=C/Br [BRIVUDINE] |  |  | 146 µM | > 250 µM | 145 µM | 3.82 µM | > 250 µM |  |  |  |  |  |  |  |  |  |  |  |  |  |  |
| CCOC(=O)c1cnc(NCCCCNc2ccnc3cc(Cl)ccc23)nc1C | 0.336 µM | 58% | > 100 µM | > 100 µM | > 20 µM | > 20 µM | ≥ 100 µM | > 20 µM | 100 µM | > 20 µM | 100 µM | > 4 µM | > 100 µM | ≥ 4000 nM | > 20 µM | > 20 µM | > 4 µM | > 20 µM | > 100 µM | > 20 µM | CC50 ([11]; CRFK cells): > 100 µM; Ratio CC50/IC50 [12]: 30.65; CC50 at 96 h [14]: 10.3 µM; EC50 (Sindbis virus): > 20 µM; EC50 [18]: > 20 µM; EC50 (Punta Toro virus): > 20 µM; EC50 (Feline coronavirus): > 100 µM; IC50 (Plasmodium falciparum [19]): 0.211 µM; EC50 (Human alphaherpesvirus 1 [21]): > 100 µM; EC50 (Influenza A virus [22]): > 4 µM; EC50 (Coxsackievirus [23]): > 20 µM |
| Nc1ccn(C[C@@H](CO)OCP(=O)(O)O)c(=O)n1 [CIDOFOVIR] |  |  |  | > 250 µM |  |  | > 250 µM | 0.86 µM |  |  |  |  |  |  |  |  |  |  |  | 1.84 µM |  |
| CCOC(=O)c1c(C)nc(NCCCCNc2ccnc3cc(Cl)ccc23)nc1-c1ccccc1[N+](=O)[O-] |  | 49% | > 4 µM | > 4 µM | > 4 µM | > 4 µM | 20 µM | > 4 µM | 100 µM | > 0.8 µM | 4 µM | > 0.16 µM | > 4 µM | 800 nM | > 20 µM | > 20 µM | > 0.16 µM | > 0.8 µM | > 100 µM | > 4 µM | CC50 ([11]; crfk): > 100 µM; CC50 (MDCK): 0.8 µM; EC50 (Sindbis virus): > 0.8 µM; EC50 [18]: > 20 µM; EC50 (Punta Toro virus): > 0.8 µM; EC50 (Feline coronavirus): 9 µM; IC50 (Plasmodium falciparum [19]): 1.46 µM; EC50 (Human alphaherpesvirus 1 [21]): > 4 µM; EC50 (Influenza A virus [22]): > 0.16 µM; EC50 (Coxsackievirus [23]): > 0.8 µM |
| CS(=O)(=O)c1ccc(-c2cnc(N)c(-c3ccc(C(F)(F)F)nc3)c2)cc1 [MMV-048] | 0.0178 µM |  |  |  |  |  |  |  |  |  |  |  |  |  |  |  |  |  |  |  |  |
| COC(=O)c1c(C)nc(NCCCNc2ccnc3cc(Cl)ccc23)nc1-c1ccccc1 | 0.542 µM | 46% | > 20 µM | > 20 µM | > 4 µM | > 4 µM | ≥ 20 µM | 10.9 µM | 100 µM | > 4 µM | 20 µM | > 0.16 µM | > 20 µM | 800 nM | > 20 µM | > 20 µM | > 0.16 µM | > 4 µM | > 20 µM | 15.3 µM | CC50 ([11]; crfk): 25.1 µM; Ratio CC50/IC50 [12]: 3.13; CC50 (MDCK): 1.7 µM; EC50 (Sindbis virus): > 4 µM; EC50 [18]: > 20 µM; EC50 (Punta Toro virus): > 4 µM; EC50 (Feline coronavirus): 1.1 µM; IC50 (Plasmodium falciparum [19]): 0.659 µM; EC50 (Human alphaherpesvirus 1 [21]): > 20 µM; EC50 (Influenza A virus [22]): > 0.16 µM; EC50 (Coxsackievirus [23]): > 4 µM |
